The source of these data is patent US8987195B2 (priority 2012, dated 2015).

One assay relates to HCV genotype 1b replicon. The assay is described as follows: HCV replicon assay, genotype 1b replicon EC50. Type of assay: cell-based, Hepatitis C virus. Particulars: Hepatitis C virus, genotype 1b replicon; read-out: EC50 [gt-1b]. The essentials: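 Cells harbouring a stable replicon are grown under G418 selection, then plated with test compound in G418-free medium for 24-48 hours. After washing and lysis, RNA or luciferase signal is measured and expressed as percent of DMSO control to give EC50.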
Background: A replicon is a self-replicating genome or part of one, used to study replication in cells.

The target in assay [1] is HCV NS3/4A protease genotype 1b (Hepatitis C virus genotype 1b, UniProt P26663). Nature of the assay: HCV NS3/4A protease time-resolved fluorescence (TRF) assay, Ki against genotype 1b. The assay is classed as biochemical. As to conditions: IC50 [gt-1b] (nM), NS3/4A genotype 1b, enzyme 0.2 nM. The essentials: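 Time-resolved fluorescence readout of NS3/4A cleavage of 25 nM europium-labelled peptide over 2.5 h at room temperature, enzyme levels set for signal/background 10–30 (0.2, 0.4, 0.025 nM for 1b, A156T, 3a). Ki by IC50=Ki(1+[S]/KM).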

pEC50: −log10 of the molar value.

As a reminder, the pEC50 is the negative decadic logarithm of the EC50, by convention in mol/L. For orientation: IC50 means the concentration that gives 50% inhibition. Low values mean greater potency in that assay, high ones weaker potency in that assay. For `Cc1nc2ccccc2c2c1O[C@]1(CC2)C[C@H]2C(=O)N[C@]3(C(=O)NS(=O)(=O)C4(C)CC4)C[C@H]3/C=C\CCCCC[C@H](NC(=O)OCC(F)F)C(=O)N2C1` [Example 121, 2,2-difluoroethyl [(2R,6S,12Z,13aS,14aR,16aS)-5′-methyl-14a-{[(1-methylcyclopropyl)sulfonyl]carbamoyl}-5,16-dioxo-1,1′,2′,5,6,7,8,9,10,11,13a,14,14a,15,16,16a-hexadecahydrospiro[cyclopropa[e]pyrrolo[1,2-a][1,4]diazacyclopentadecine-2,3′-pyrano[2,3-c]quinolin]-6-yl]carbamate], the pEC50 in the assay with HCV genotype 1b replicon is 8.19. Further, the IC50 in assay [1] came out at 0.025 nM.

Turning to `Cc1nc2ccc(OC(F)(F)F)cc2c2c1O[C@]1(CC2)C[C@H]2C(=O)N[C@]3(C(=O)NS(=O)(=O)C4(C)CC4)C[C@H]3/C=C\CCCCC[C@H](NC(=O)OC3(C)CC3)C(=O)N2C1` [Example 122, 1-methylcyclopropyl [(2R,6S,12Z,13aS,14aR,16aS)-5′-methyl-14a-{[(1-methylcyclopropyl)sulfonyl]carbamoyl}-5,16-dioxo-9′-(trifluoromethoxy)-1,1′,2′,5,6,7,8,9,10,11,13a,14,14a,15,16,16a-hexadecahydrospiro[cyclopropa[e]pyrrolo[1,2-a][1,4]diazacyclopentadecine-2,3′-pyrano[2,3-c]quinolin]-6-yl]carbamate], in the assay with HCV genotype 1b replicon, the pEC50 was 8.70. In assay [1], this compound came in with an IC50 of 0.019 nM.

Turning to `Cc1nc2ccc(OC(F)(F)F)cc2c2c1O[C@]1(CC2)C[C@H]2C(=O)N[C@]3(C(=O)NS(=O)(=O)C4(C)CC4)C[C@H]3/C=C\CCCCC[C@H](NC(=O)OC(C)C)C(=O)N2C1` [Example 123, propan-2-yl [(2R,6S,12Z,13aS,14aR,16aS)-5′-methyl-14a-{[(1-methylcyclopropyl)sulfonyl]carbamoyl}-5,16-dioxo-9′-(trifluoromethoxy)-1,1′,2′,5,6,7,8,9,10,11,13a,14,14a,15,16,16a-hexadecahydrospiro[cyclopropa[e]pyrrolo[1,2-a][1,4]diazacyclopentadecine-2,3′-pyrano[2,3-c]quinolin]-6-yl]carbamate], the pEC50 in the assay with HCV genotype 1b replicon was 8.68. In assay [1], the IC50 was determined as 0.017 nM.

For `Cc1nc2ccc(OC(F)(F)F)cc2c2c1O[C@]1(CC2)C[C@H]2C(=O)N[C@]3(C(=O)NS(=O)(=O)C4(C)CC4)C[C@H]3/C=C\CCCCC[C@H](NC(=O)OCC(C)C)C(=O)N2C1` [Example 124, 2-methylpropyl [(2R,6S,12Z,13aS,14aR,16aS)-5′-methyl-14a-{[(1-methylcyclopropyl)sulfonyl]carbamoyl}-5,16-dioxo-9′-(trifluoromethoxy)-1,1′,2′,5,6,7,8,9,10,11,13a,14,14a,15,16,16a-hexadecahydrospiro[cyclopropa[e]pyrrolo[1,2-a][1,4]diazacyclopentadecine-2,3′-pyrano[2,3-c]quinolin]-6-yl]carbamate], in the assay with HCV genotype 1b replicon, the pEC50 is 8.60. The same compound showed an IC50 in assay [1] of 0.016 nM.

For the compound `Cc1nc2ccc(OC(F)(F)F)cc2c2c1O[C@]1(CC2)C[C@H]2C(=O)N[C@]3(C(=O)NS(=O)(=O)C4(C)CC4)C[C@H]3/C=C\CCCCC[C@H](NC(=O)OC3CCCC3)C(=O)N2C1` [Example 125, cyclopentyl [(2R,6S,12Z,13aS,14aR,16a5)-5′-methyl-14a-{[(1-methylcyclopropyl)sulfonyl]carbamoyl}-5,16-dioxo-9′-(trifluoromethoxy)-1,1′,2′,5,6,7,8,9,10,11,13a,14,14a,15,16,16a-hexadecahydrospiro[cyclopropa[e]pyrrolo[1,2-a][1,4]diazacyclopentadecine-2,3′-pyrano[2,3-c]quinolin]-6-yl]carbamate], in the assay on HCV genotype 1b replicon, the pEC50 was 8.43. The IC50 in assay [1] was found to be 0.016 nM.

As for `Cc1nc2ccccc2c2c1O[C@]1(CC2)C[C@H]2C(=O)N[C@]3(C(=O)NS(=O)(=O)C4(C)CC4)C[C@H]3/C=C\CCCCC[C@H](NC(=O)OC(C)C3CC3)C(=O)N2C1` (stereo partly drawn) [Example 126, 1-cyclopropylethyl [(2R,6S,12Z,13aS,14aR,16aS)-5′-methyl-14a-{[(1-methylcyclopropyl)sulfonyl]carbamoyl}-5,16-dioxo-1,1′,2′,5,6,7,8,9,10,11,13a,14,14a,15,16,16a-hexadecahydrospiro[cyclopropa[e]pyrrolo[1,2-a][1,4]diazacyclopentadecine-2,3′-pyrano[2,3-c]quinolin]-6-yl]carbamate], the pEC50 with HCV genotype 1b replicon was 8.58. In assay [1], this compound registered an IC50 of 0.029 nM.

Consider `Cc1nc2ccccc2c2c1O[C@]1(CC2)C[C@H]2C(=O)N[C@]3(C(=O)NS(=O)(=O)C4(C)CC4)C[C@H]3/C=C\CCCCC[C@H](NC(=O)OCCF)C(=O)N2C1` [Example 127, 2-fluoroethyl [(2R,6S,12Z,13aS,14aR,16aS)-5′-methyl-14a-{[(1-methylcyclopropyl)sulfonyl]carbamoyl}-5,16-dioxo-1,1′,2′,5,6,7,8,9,10,11,13a,14,14a,15,16,16a-hexadecahydrospiro[cyclopropa[e]pyrrolo[1,2-a][1,4]diazacyclopentadecine-2,3′-pyrano[2,3-c]quinolin]-6-yl]carbamate], for which the negative-log EC50 (pEC50) with HCV genotype 1b replicon is 9.40. This compound returned an IC50 in assay [1] of 0.031 nM.

With `COCCOC(=O)N[C@H]1CCCCC/C=C\[C@@H]2C[C@@]2(C(=O)NS(=O)(=O)C2(C)CC2)NC(=O)[C@@H]2C[C@]3(CCc4c(c(C)nc5ccccc45)O3)CN2C1=O` [Example 128, 2-methoxyethyl [(2R,6S,12Z,13aS,14aR,16aS)-5′-methyl-14a-{[(1-methylcyclopropyl)sulfonyl]carbamoyl}-5,16-dioxo-1,1′,2′,5,6,7,8,9,10,11,13a,14,14a,15,16,16a-hexadecahydrospiro[cyclopropa[e]pyrrolo[1,2-a][1,4]diazacyclopentadecine-2,3′-pyrano[2,3-c]quinolin]-6-yl]carbamate], in the assay with HCV genotype 1b replicon, the pEC50 is 8.70. This compound had an IC50 in assay [1] of 0.044 nM.

In the case of `Cc1nc2ccccc2c2c1O[C@]1(CC2)C[C@H]2C(=O)N[C@]3(C(=O)NS(=O)(=O)C4(C)CC4)C[C@H]3/C=C\CCCCC[C@H](NC(=O)OCC(F)(F)F)C(=O)N2C1` [Example 129, 2,2,2-trifluoroethyl [(2R,6S,12Z,13aS,14aR,16aS)-5′-methyl-14a-{[(1-methylcyclopropyl)sulfonyl]carbamoyl}-5,16-dioxo-1,1′,2′,5,6,7,8,9,10,11,13a,14,14a,15,16,16a-hexadecahydrospiro[cyclopropa[e]pyrrolo[1,2-a][1,4]diazacyclopentadecine-2,3′-pyrano[2,3-c]quinolin]-6-yl]carbamate], the pEC50 in the assay with HCV genotype 1b replicon was 8.68. Further, half-maximal inhibition in assay [1] (IC50) was put at 0.011 nM.

With `Cc1nc2ccccc2c2c1O[C@]1(CC2)C[C@H]2C(=O)N[C@]3(C(=O)NS(=O)(=O)C4(C)CC4)C[C@H]3/C=C\CCCCC[C@H](NC(=O)OCC(C)(C)C)C(=O)N2C1` [Example 130, 2,2-dimethylpropyl [(2R,6S,12Z,13aS,14aR,16aS)-5′-methyl-14a-{[(1-methylcyclopropyl)sulfonyl]carbamoyl}-5,16-dioxo-1,1′,2′,5,6,7,8,9,10,11,13a,14,14a,15,16,16a-hexadecahydrospiro[cyclopropa[e]pyrrolo[1,2-a][1,4]diazacyclopentadecine-2,3′-pyrano[2,3-c]quinolin]-6-yl]carbamate], the pEC50 in the assay on HCV genotype 1b replicon was 8.71. Further, the IC50 in assay [1] came to 0.01 nM.

Regarding `Cc1nc2ccccc2c2c1O[C@]1(CC2)C[C@H]2C(=O)N[C@]3(C(=O)NS(=O)(=O)C4(C)CC4)C[C@H]3/C=C\CCCCC[C@H](NC(=O)OC3(C4CC4)CC3)C(=O)N2C1` [Example 131, 1,1′-bi(cyclopropyl)-1-yl [(2R,6S,12Z,13aS,14aR,16aS)-5′-methyl-14a-{[(1-methylcyclopropyl)sulfonyl]carbamoyl}-5,16-dioxo-1,1′,2′,5,6,7,8,9,10,11,13a,14,14a,15,16,16a-hexadecahydrospiro[cyclopropa[e]pyrrolo[1,2-a][1,4]diazacyclopentadecine-2,3′-pyrano[2,3-c]quinolin]-6-yl]carbamate], the pEC50 in the assay with HCV genotype 1b replicon is 8.89. Moreover, half-maximal inhibition in assay [1] (IC50) required 0.003 nM.

With `COc1ccc2c3c(c(C4CC4)nc2c1)O[C@]1(CC3)C[C@H]2C(=O)N[C@]3(C(=O)NS(=O)(=O)C4(C)CC4)C[C@H]3/C=C\CCCCC[C@H](NC(=O)NC(C)(C)C)C(=O)N2C1` [Example 132, (2R,6S,12Z,13aS,14aR,16aS)-6-[(tert-butylcarbamoyl)amino]-5′-cyclopropyl-8′-methoxy-N-[(1-methylcyclopropyl)sulfonyl]-5,16-dioxo-1,1′,2′,6,7,8,9,10,11,13a,14,15,16,16a-tetradecahydrospiro[cyclopropa[e]pyrrolo[1,2-a][1,4]diazacyclopentadecine-2,3′-pyrano[2,3-c]quinoline]-14a(5H)-carboxamide], in the assay on HCV genotype 1b replicon, the pEC50 is 8.85. The compound further registered an IC50 in assay [1] of 0.002 nM.

Consider `COc1ccc2c3c(c(C4CC4)nc2c1)O[C@]1(CC3)C[C@H]2C(=O)N[C@]3(C(=O)NS(=O)(=O)C4(C)CC4)C[C@H]3/C=C\CCCCC[C@H](NC(=O)NC3CCCC3)C(=O)N2C1` [Example 133, (2R,6S,12Z,13aS,14aR,16aS)-6-[(cyclopentylcarbamoyl)amino]-5′-cyclopropyl-8′-methoxy-N-[(1-methylcyclopropyl)sulfonyl]-5,16-dioxo-1,1′,2′,6,7,8,9,10,11,13a,14,15,16,16a-tetradecahydrospiro[cyclopropa[e]pyrrolo[1,2-a][1,4]diazacyclopentadecine-2,3′-pyrano[2,3-c]quinoline]-14a(5H)-carboxamide], for which, in the assay with HCV genotype 1b replicon, the pEC50 was 7.76. The 50% inhibitory concentration (IC50) in assay [1] was determined as 0.007 nM.
